Drawing on patent publication US6214869A, “Heterocyclic cis cyclopropane derivatives as melatonergic agents” (Bristol-Myers Squibb, priority 1999, dated 2001), this text covers IC50 for five compounds.

For the assay, the target named is T1, ML1a human melatonin receptor (Homo sapiens, UniProt P48039).
T1 construct: expressed in transfected cells
T1 sequence (P48039 whole entry): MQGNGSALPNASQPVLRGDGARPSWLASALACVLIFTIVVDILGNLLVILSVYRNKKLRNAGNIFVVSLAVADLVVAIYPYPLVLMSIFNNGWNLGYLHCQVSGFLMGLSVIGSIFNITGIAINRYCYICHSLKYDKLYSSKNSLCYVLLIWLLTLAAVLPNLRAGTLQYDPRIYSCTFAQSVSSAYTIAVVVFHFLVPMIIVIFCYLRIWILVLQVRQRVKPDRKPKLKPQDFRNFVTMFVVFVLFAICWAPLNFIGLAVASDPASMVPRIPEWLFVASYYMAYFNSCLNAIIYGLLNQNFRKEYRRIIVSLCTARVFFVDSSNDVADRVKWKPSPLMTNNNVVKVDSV
The assay can be described thus: Melatonergic receptor binding (2-[125I]-iodomelatonin, membranes of NIH-3T3 cells expressing ML1a receptor). Conditions: 37° C. for 1 hour, read-out: Melatonin Binding Affinity (IC50). The procedure:
Melatonergic Receptor Binding Activity
(a) TME=50 mM Tris buffer containing 12.5 mM MgCl2, and 2 mM EDTA, pH 7.4 at 37° C. with concentrated HCl.
(b) Wash buffer: 20 mM Tris base containing 2 mM MgCl2, pH 7.4 at room temperature.
(c) 10^-4 M melatonin (10^-5 M final concentration).
(d) 2-[^125 I]-iodomelatonin, 0.1 M final concentration
The melatonin ML1a receptor cDNA was subcloned into pcDNA3 and introduced into NIH-3T3 cells using Lipofectamine. Transformed NIH-3T3 cells resistant to geneticin (G-418) were isolated, and single colonies expressing high levels of 2[^125 I]-iodomelatonin binding were isolated. Cells are maintained in DMEM supplemented with 10% calf serum and G-418 (0.5 g/liter). Cells are grown to confluency in T-175 flasks, scraped using Hank's balanced salt solution, and frozen at -80° C. For preparing membrane homogenates, pellets are thawed on ice, and resuspended in TME buffer in the presence of 10 μg/ml aprotinin and leupeptin, and 100 μM phenylmethylsulfonylfluoride. The cells were then homogenized using a dounce homogenizer, and centrifuged. The resulting pellet was resuspended with dounce homogenizer in TME (supplemented with the above protease inhibitors) and frozen. On the day of assay, the small aliquot was thawed on ice and resuspended in ice cold TME (1:50-1:100 v/v) and held on ice until assayed.
3. Incubation: 37° C. for 1 hour. Reaction is terminated by filtration. Filters are washed 3 times.
^a = (IC50) values for ML1a human melatonin receptor binding
As to `CC(=O)NC[C@@H]1C[C@@H]1c1cccc2c1CCO2` (relative stereo) [Example 2, (cis)-N-[[2-(2,3-Dihydrobenzofuran-4-yl)cycloprop-1-yl]methyl]acetamide], the IC50 (in general, the concentration that gives 50% inhibition) fell in the range of 50 to 200 nM.

As for `CCCC(=O)NC[C@@H]1C[C@@H]1c1cccc2c1CCO2` (relative stereo) [Example 4, (cis)-N-[[2-(2,3-Dihydrobenzofuran-4-yl)cycloprop-1-yl]methyl]butyramide], the IC50 is < 50 nM.

For the compound `CCC(=O)NC[C@@H]1C[C@@H]1c1cccc2c1CCO2` (relative stereo) [Example 1, (cis)-N-[[2-(2,3-Dihydrobenzofuran-4-yl)cycloprop-1-yl]methyl]propanamide], the IC50 is < 50 nM.

For the compound `CC(C)C(=O)NC[C@H]1C[C@H]1c1cccc2c1CCO2` (relative stereo) [Example 5, (cis)-N-[[2-(2,3-Dihydrobenzofuran-4-yl)cycloprop-1-yl]methyl]-2-methyl propanamide], the IC50 is < 50 nM.

Turning to `O=C(NC[C@@H]1C[C@@H]1c1cccc2c1CCO2)C1CC1` (relative stereo) [Example 3, (cis)-N-[[2-(2,3-Dihydrobenzofuran-4-yl)cycloprop-1-yl]methyl]cyclopropane carboxamide], the IC50 is < 50 nM.
